This passage reports TGI and GI50 results from PubChem BioAssay (NCI).

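All cell lines were grown in 96-well plates and treated with compound for 48 hours. GI50: concentration for 50% inhibition of growth. TGI is the concentration that stops growth completely.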

One assay relates to A549 NSCLC. Put plainly: NCI-60 cell line screen, 48 h.
Compound `Fc1c(F)c(C(F)(F)F)c(F)c(F)c1N/N=C\c1c[nH]c2ccccc12` had a TGI of 12 µM.

On to `COc1cc2c(/C=C3/C(=O)Nc4ccc(Cl)cc43)c(Cl)n(Cc3ccccc3)c2cc1C`, for which the TGI was > 100 µM.

Turning to `N#CC(C#N)=CN1CCN(C(=O)c2ccco2)C1=S`, the GI50 is 13.5 µM and the TGI came out at 47.7 µM.

Turning to `COc1ccc2c(c1)CC[C@@H]1[C@@H]2CC[C@]2(C)C(=O)C3(CCCCC3)C[C@@H]12`, the GI50 is > 100 µM and the TGI was > 100 µM.

As to `NS(=O)(=O)c1cc2c(cc1Cl)NC(C(=O)c1cc(=O)c3ccc(O)cc3o1)=NS2(=O)=O`, the TGI is > 100 µM.

In the case of `CC(=O)OCC(=O)[C@@]1(O)CC[C@H]2[C@@H]3CCC4=CC(=O)[C@H](C)C[C@]4(C)[C@H]3[C@@H](O)C[C@@]21C`, the TGI was > 100 µM.

Regarding `O=C(NO)c1ccc([N+](=O)[O-])cc1`, the TGI is > 100 µM.

Regarding `Cc1c(C#N)c2nnn(C)c(=O)n2c1-c1ccccc1`, the TGI was > 100 µM.

The subject of the next assay is ACHN renal. Put plainly: NCI-60 cell line screen, 48 h.
`Fc1c(F)c(C(F)(F)F)c(F)c(F)c1N/N=C\c1c[nH]c2ccccc12` registered a TGI of 19.5 µM.

As for `COc1cc2c(/C=C3/C(=O)Nc4ccc(Cl)cc43)c(Cl)n(Cc3ccccc3)c2cc1C`, the TGI stood at 6.8 µM.

For `COc1ccc(-c2ccc(-c3ccc(C(=N)N)nc3)s2)cc1`, the GI50 is 1.84 µM and the TGI turned out to be 3.24 µM.

For the compound `N#CC(C#N)=CN1CCN(C(=O)c2ccco2)C1=S`, the GI50 is 9.4 µM and the TGI turned out to be 50.5 µM.

With `COc1ccc2c(c1)CC[C@@H]1[C@@H]2CC[C@]2(C)C(=O)C3(CCCCC3)C[C@@H]12`, the GI50 is > 100 µM and the TGI is > 100 µM.

Regarding `NS(=O)(=O)c1cc2c(cc1Cl)NC(C(=O)c1cc(=O)c3ccc(O)cc3o1)=NS2(=O)=O`, the TGI is > 100 µM.

As to `CC(=O)OCC(=O)[C@@]1(O)CC[C@H]2[C@@H]3CCC4=CC(=O)[C@H](C)C[C@]4(C)[C@H]3[C@@H](O)C[C@@]21C`, the TGI was > 100 µM.

As for `Cc1c(C#N)c2nnn(C)c(=O)n2c1-c1ccccc1`, the TGI was > 100 µM.

For another assay, the system named is CCRF-CEM leukemia. The experiment in a line: NCI-60 cell line screen, 48 h.
On to `Fc1c(F)c(C(F)(F)F)c(F)c(F)c1N/N=C\c1c[nH]c2ccccc12`, for which the TGI came out at 4.73 µM.

In the case of `COc1cc2c(/C=C3/C(=O)Nc4ccc(Cl)cc43)c(Cl)n(Cc3ccccc3)c2cc1C`, the TGI was 6.78 µM.

Turning to `O=C(O)C(=C\c1ccc2c(c1)OCO2)/C(=C/c1ccc2c(c1)OCO2)C(=O)O`, the TGI is > 100 µM.

As for `N#CC(C#N)=CN1CCN(C(=O)c2ccco2)C1=S`, the GI50 is 79.7 µM and the TGI was > 100 µM.

For the compound `COc1ccc2c(c1)CC[C@@H]1[C@@H]2CC[C@]2(C)C(=O)C3(CCCCC3)C[C@@H]12`, the GI50 was > 100 µM and the TGI was > 100 µM.

`NS(=O)(=O)c1cc2c(cc1Cl)NC(C(=O)c1cc(=O)c3ccc(O)cc3o1)=NS2(=O)=O`: the TGI is > 100 µM.

In the case of `CC(=O)OCC(=O)[C@@]1(O)CC[C@H]2[C@@H]3CCC4=CC(=O)[C@H](C)C[C@]4(C)[C@H]3[C@@H](O)C[C@@]21C`, the TGI was > 100 µM.

Turning to `O=C(NO)c1ccc([N+](=O)[O-])cc1`, the TGI is > 100 µM.

As for `Cc1c(C#N)c2nnn(C)c(=O)n2c1-c1ccccc1`, the TGI was > 100 µM.

The subject of a further assay is HCT-116 colon. Put plainly: NCI-60 cell line screen, 48 h.
In turn, `Fc1c(F)c(C(F)(F)F)c(F)c(F)c1N/N=C\c1c[nH]c2ccccc12` yielded a TGI of 14.5 µM.

`COc1cc2c(/C=C3/C(=O)Nc4ccc(Cl)cc43)c(Cl)n(Cc3ccccc3)c2cc1C`: the TGI was > 100 µM.

`O=C(O)C(=C\c1ccc2c(c1)OCO2)/C(=C/c1ccc2c(c1)OCO2)C(=O)O`: the TGI was > 100 µM.

Take `COc1ccc2c(c1)CC[C@@H]1[C@@H]2CC[C@]2(C)C(=O)C3(CCCCC3)C[C@@H]12`: the GI50 is > 100 µM and the TGI was > 100 µM.

In the case of `NS(=O)(=O)c1cc2c(cc1Cl)NC(C(=O)c1cc(=O)c3ccc(O)cc3o1)=NS2(=O)=O`, the TGI was > 100 µM.

Turning to `CC(=O)OCC(=O)[C@@]1(O)CC[C@H]2[C@@H]3CCC4=CC(=O)[C@H](C)C[C@]4(C)[C@H]3[C@@H](O)C[C@@]21C`, the TGI was > 100 µM.

For another assay, the system named is HOP-62 NSCLC. The experiment in a line: NCI-60 cell line screen, 48 h.
Turning to `Fc1c(F)c(C(F)(F)F)c(F)c(F)c1N/N=C\c1c[nH]c2ccccc12`, the TGI was found to be 4.16 µM.

`O=C(O)C(=C\c1ccc2c(c1)OCO2)/C(=C/c1ccc2c(c1)OCO2)C(=O)O`: the TGI was > 100 µM.

In the case of `COc1ccc2c(c1)CC[C@@H]1[C@@H]2CC[C@]2(C)C(=O)C3(CCCCC3)C[C@@H]12`, the GI50 is > 100 µM and the TGI is > 100 µM.

Consider `NS(=O)(=O)c1cc2c(cc1Cl)NC(C(=O)c1cc(=O)c3ccc(O)cc3o1)=NS2(=O)=O`, for which the TGI is > 100 µM.

With `CC(=O)OCC(=O)[C@@]1(O)CC[C@H]2[C@@H]3CCC4=CC(=O)[C@H](C)C[C@]4(C)[C@H]3[C@@H](O)C[C@@]21C`, the TGI is > 100 µM.

In the case of `O=C(NO)c1ccc([N+](=O)[O-])cc1`, the TGI was > 100 µM.

Turning to `Cc1c(C#N)c2nnn(C)c(=O)n2c1-c1ccccc1`, the TGI was > 100 µM.

For the next assay, the system named is SF-539 CNS. The experiment in a line: NCI-60 cell line screen, 48 h.
Compound `COc1cc2c(/C=C3/C(=O)Nc4ccc(Cl)cc43)c(Cl)n(Cc3ccccc3)c2cc1C` had a TGI of 7.69 µM.

`COc1ccc(-c2ccc(-c3ccc(C(=N)N)nc3)s2)cc1`: the GI50 was 1.73 µM and the TGI stood at 3.17 µM.

Turning to `N#CC(C#N)=CN1CCN(C(=O)c2ccco2)C1=S`, the GI50 was 2.48 µM and the TGI amounted to 7.55 µM.

With `COc1ccc2c(c1)CC[C@@H]1[C@@H]2CC[C@]2(C)C(=O)C3(CCCCC3)C[C@@H]12`, the GI50 is > 100 µM and the TGI is > 100 µM.
